Assay [1] has as its system Glomerella lagenarium (Colletotrichum lagenarium). Briefly: Glomerella lagenarium (Colletotrichum lagenarium) / liquid culture (anthracnose). Type of assay: cell-based. The settings on record: Colletotrichum orbiculare, liquid culture (PDB), 24° C., growth inhibition photometrically 3-4 days after application, read-out: control of Glomerella lagenarium compared to untreated control. As to the method: Example B-3: Glomerella lagenarium (Colletotrichum lagenarium)/Liquid Culture (Anthracnose) Conidia of the fungus from cryogenic storage are directly mixed into nutrient broth (PDB potato dextrose broth). After placing a (DMSO) solution of test compound into a microtiter plate (96-well format), the nutrient broth containing the fungal spores is added. The test plates are incubated at 24° C. and the inhibition of growth is measured photometrically 3-4 days after application.

In assay [2] the test system is Monographella nivalis (Microdochium nivale). Briefly: Monographella nivalis (Microdochium nivale) / liquid culture (foot rot cereals). Type of assay: cell-based. The settings on record: liquid culture (PDB), 24° C., growth inhibition photometrically 4-5 days after application, read-out: control of Monographella nivalis compared to untreated control. As to the method: Example B-7: Monographella Nivalis (Microdochium nivale)/Liquid Culture (Foot Rot Cereals) Conidia of the fungus from cryogenic storage are directly mixed into nutrient broth (PDB potato dextrose broth). After placing a (DMSO) solution of test compound into a microtiter plate (96-well format), the nutrient broth containing the fungal spores is added. The test plates are incubated at 24° C. and the inhibition of growth is determined photometrically 4-5 days after application.

Assay [3] concerns Mycosphaerella graminicola (Septoria tritici). Briefly: Mycosphaerella graminicola (Septoria tritici) / liquid culture (Septoria blotch). It counts as cell-based. The settings on record: Zymoseptoria tritici, liquid culture (PDB), 24° C., growth inhibition photometrically 4-5 days after application, read-out: control of Mycosphaerella graminicola compared to untreated control. As to the method:
Example B-12: Mycosphaerella graminicola (Septoria tritici)/Liquid Culture (Septoria Blotch) Conidia of the fungus from cryogenic storage are directly mixed into nutrient broth (PDB potato dextrose broth). After placing a (DMSO) solution of test compound into a microtiter plate (96-well format), the nutrient broth containing the fungal spores is added. The test plates are incubated at 24° C. and the inhibition of growth is determined photometrically 4-5 days after application.

Assay [4] concerns Magnaporthe grisea (Pyricularia oryzae). It counts as in vivo. To be noted: 200 ppm; rice leaf segments cv. Ballila; inoculated 2 days after application; assessed 5-7 days after application.

Molecules are shown by their SMILES.

`Cn1cc(C(C)(CNC(=O)c2cc(-c3ccc(F)cc3F)on2)c2nc(C3CC3)cs2)cn1` (stereo not shown) [Compound P-11, N-[2-(4-cyclopropylthiazol-2-yl)-2-(1-methylpyrazol-4-yl)propyl]-5-(2,4-difluorophenyl) isoxazole-3-carboxamide]: the inhibition of growth at 20 ppm in assay [1], in assay [2] and in assay [3] was at least 80% each time.

In the case of `Cn1cc(C(C)(CNC(=O)c2cc(-c3ccc(F)cc3F)on2)c2nccs2)cn1` (stereo not shown) [Compound P-2, 5-(2,4-difluorophenyl)-N-[2-(1-methylpyrazol-4-yl)-2-thiazol-2-yl-propyl]isoxazole-3-carboxamide], the inhibition of growth at 20 ppm in assay [1], in assay [2] and in assay [3] was at least 80% in each case.

With `Cn1cc(C(C)(CNC(=O)c2cc(-c3ccc(F)cc3F)on2)c2nc(Br)cs2)cn1` (stereo not shown) [Compound P-8, N-[2-(4-bromothiazol-2-yl)-2-(1-methylpyrazol-4-yl)propyl]-5-(2,4-difluorophenyl) isoxazole-3-carboxamide], the inhibition of growth at 20 ppm in assay [1], in assay [2] and in assay [3] was at least 80% throughout.

Turning to `Cn1cc(C(C)(CNC(=O)c2cc(-c3ccc(F)cc3F)on2)c2nc(Cl)cs2)cn1` (racemic) [Compound P-4, N-[2-(4-chlorothiazol-2-yl)-2-(1-methylpyrazol-4-yl)propyl]-5-(2,4-difluorophenyl)isoxazole-3-carboxamide], the inhibition of growth at 20 ppm in assay [1], in assay [2] and in assay [3] was at least 80% throughout.

As for `Cn1cc(C(C)(CNC(=O)c2cc(-c3ccc(F)cc3F)on2)c2nc(Cl)cs2)cn1` (single isomer, unassigned) [Compound P-5, N-[2-(4-chlorothiazol-2-yl)-2-(1-methylpyrazol-4-yl)propyl]-5-(2,4-difluorophenyl) isoxazole-3-carboxamide], the inhibition of growth at 20 ppm in assay [1], in assay [2] and in assay [3] was at least 80% each time.

As for `Cn1cc(C(C)(CNC(=O)c2cc(-c3ccc(F)cc3F)on2)c2csc(Br)n2)cn1` (stereo not shown) [Compound P-10, N-[2-(2-bromothiazol-4-yl)-2-(1-methylpyrazol-4-yl)propyl]-5-(2,4-difluorophenyl) isoxazole-3-carboxamide], the inhibition of growth at 20 ppm in assay [1], in assay [2] and in assay [3] was at least 80% each time.

Take `Cn1cc(C(C)(CNC(=O)c2cc(-c3ccc(F)cc3F)on2)c2nc(Cl)c(Cl)s2)cn1` (stereo not shown) [Compound P-3, N-[2-(4,5-dichlorothiazol-2-yl)-2-(1-methylpyrazol-4-yl)propyl]-5-(2,4-difluorophenyl)isoxazole-3-carboxamide]: the inhibition of growth at 20 ppm in assay [1], in assay [2] and in assay [3] was at least 80% throughout.

With `Cn1cc(C(C)(CNC(=O)c2cc(-c3ccc(F)cc3F)on2)c2ncc(Br)s2)cn1` (stereo not shown) [Compound P-7, N-[2-(5-bromothiazol-2-yl)-2-(1-methylpyrazol-4-yl)propyl]-5-(2,4-difluorophenyl) isoxazole-3-carboxamide], the inhibition of growth at 20 ppm in assay [1], in assay [2] and in assay [3] was at least 80% throughout.

For `Cn1cc(C(C)(CNC(=O)c2cc(-c3ccc(F)cc3F)on2)c2ccn(C)n2)cn1` (stereo not shown) [Compound P-1, 5-(2,4-difluorophenyl)-N-[2-(1-methylpyrazol-3-yl)-2-(1-methylpyrazol-4-yl)propyl]isoxazole-3-carboxamide], the inhibition of growth at 20 ppm in assay [1], in assay [2] and in assay [3] was at least 80% throughout. The “control of Magnaporthe grisea compared to untreated control” value in assay [4] was “at least 80%”.

For the compound `Cn1cc(C(C)(CNC(=O)c2cc(-c3ccc(F)cc3F)on2)c2nc(C(F)(F)F)cs2)cn1` (stereo not shown) [Compound P-9, 5-(2,4-difluorophenyl)-N-[2-(1-methylpyrazol-4-yl)-2-[4-(trifluoromethyl)thiazol-2-yl]propyl]isoxazole-3-carboxamide], the inhibition of growth at 20 ppm in assay [1], in assay [2] and in assay [3] was at least 80% each time.
